Assay results: patent US7897582B2, “Oligonucleotide compositions and methods for the modulation of the expression of B7 protein” (Isis Pharmaceuticals, Inc., priority 2003, dated 2011)
Strand notation (5' to 3'): a small letter for the sugar, then the base; units joined by * are phosphorothioate-linked, units joined directly phosphodiester-linked; [ ] holds rarer units or linkages, { } end groups; capitals alone tell only the bases. e = 2'-O-(2-methoxyethyl) (MOE); [5mC] = 5-methylcytosine; d = 2'-deoxy (DNA)

Assays:
Human B7-1 mRNA = Human B7-1 mRNA expression in COS-7 cells, screened as in Example 4; assay type: cell-based
human B7.2 mRNA = experiment: Human B7.2 mRNA levels in THP-1 cells by quantitative real-time PCR (Example 27); assay type: cell-based; parameters: concentration or dose not given beside the values
From the text: In accordance with the present invention, an additional series of antisense compounds were designed to target different regions of the human B7.2 RNA, using published sequences (GenBank accession number U04343.1, incorporated herein as SEQ ID NO: 295, GenBank accession number BC040261.1, incorporated herein as SEQ ID NO: 296 and GenBank accession number NT—005543.12, a portion of which is incorporated herein as SEQ ID NO: 297). “Target site” indicates the first (5′-most) nucleotide number on the particular target sequence to which the compound binds. All compounds in Table 25 are chimeric oligonucleotides (“gapmers”) 20 nucleotides in length, composed of a central “gap” region consisting of ten 2′-deoxynucleotides, which is flanked on both sides (5′ and 3′ directions) by five-nucleotide “wings”. The wings are composed of 2′-methoxyethyl (2′-MOE)nucleotides. The internucleoside (backbone) linkages are phosphorothioate (P═S) throughout the oligonucleotide. All cytidine residues are 5-methylcytidines. The compounds were analyzed for their effect on human B7.2 mRNA levels in THP-1 cells by quantitative real-time PCR as described in other examples herein. Data are averages from three experiments. If present, “N.D.” indicates “no data”.

Substance: 22329 (antisense e[5mC]*e[5mC]*eT*e[5mC]*e[5mC]*dA*dG*dA*dG*dG*dT*dT*dG*dA*dG*e[5mC]*eA*eA*eA*eT) [compound 22329]
- % mRNA EXPRESSION (Human B7-1 mRNA; human B7-1 mRNA, Table 7): 59%
- % mRNA INHIBITION (Human B7-1 mRNA; human B7-1 mRNA, Table 7): 41%

Substance: 22330 (antisense e[5mC]*e[5mC]*eA*eA*e[5mC]*d[5mC]*dA*dG*dG*dA*dG*dA*dG*dG*dT*eG*eA*eG*eG*e[5mC]) [compound 22330]
- % mRNA EXPRESSION (Human B7-1 mRNA; human B7-1 mRNA, Table 7): 54%
- % mRNA INHIBITION (Human B7-1 mRNA; human B7-1 mRNA, Table 7): 46%

Substance: 22331 (antisense eG*eA*eA*eG*e[5mC]*dT*dG*dT*dG*dG*dT*dT*dG*dG*dT*eT*eG*eT*e[5mC]*eA) [compound 22331]
- % mRNA EXPRESSION (Human B7-1 mRNA; human B7-1 mRNA, Table 7): 62%
- % mRNA INHIBITION (Human B7-1 mRNA; human B7-1 mRNA, Table 7): 38%

Substance: 22332 (antisense eT*eT*eG*eA*eA*dG*dG*dT*d[5mC]*dT*dG*dA*dT*dT*d[5mC]*eA*e[5mC]*eT*e[5mC]*eT) [compound 22332]
- % mRNA EXPRESSION (Human B7-1 mRNA; human B7-1 mRNA, Table 7): 67%
- % mRNA INHIBITION (Human B7-1 mRNA; human B7-1 mRNA, Table 7): 33%

Substance: 22333 (antisense eA*eA*eG*eG*eT*dA*dA*dT*dG*dG*d[5mC]*d[5mC]*d[5mC]*dA*dG*eG*eA*eT*eG*eG) [compound 22333]
- % mRNA EXPRESSION (Human B7-1 mRNA; human B7-1 mRNA, Table 7): 73%
- % mRNA INHIBITION (Human B7-1 mRNA; human B7-1 mRNA, Table 7): 27%

Substance: 22336 (antisense eA*eG*e[5mC]*e[5mC]*e[5mC]*d[5mC]*dT*dT*dG*d[5mC]*dT*dT*d[5mC]*dT*dG*e[5mC]*eG*eG*eA*e[5mC]) [compound 22336]
- % mRNA EXPRESSION (Human B7-1 mRNA; human B7-1 mRNA, Table 7): 55%
- % mRNA INHIBITION (Human B7-1 mRNA; human B7-1 mRNA, Table 7): 45%

Substance: 22339 (antisense eG*eT*eA*eA*eA*dA*d[5mC]*dA*dG*d[5mC]*dT*dT*dA*dA*dA*eT*eT*eT*eG*eT) [compound 22339]
- % mRNA EXPRESSION (Human B7-1 mRNA; human B7-1 mRNA, Table 7): 69%
- % mRNA INHIBITION (Human B7-1 mRNA; human B7-1 mRNA, Table 7): 31%

Substance: 22340 (antisense eA*eG*eA*eA*eG*dA*dG*dG*dT*dT*dA*d[5mC]*dA*dT*dT*eA*eA*eG*e[5mC]*eA) [compound 22340]
- % mRNA EXPRESSION (Human B7-1 mRNA; human B7-1 mRNA, Table 7): 71%
- % mRNA INHIBITION (Human B7-1 mRNA; human B7-1 mRNA, Table 7): 29%

Substance: 22341 (antisense eA*eG*eA*eT*eA*dA*dT*dG*dA*dA*dT*dT*dG*dG*d[5mC]*eT*eG*eA*e[5mC]*eA) [compound 22341]
- % mRNA EXPRESSION (Human B7-1 mRNA; human B7-1 mRNA, Table 7): 59%
- % mRNA INHIBITION (Human B7-1 mRNA; human B7-1 mRNA, Table 7): 41%

Substance: 24733 (antisense eG*e[5mC]*eG*eT*e[5mC]*dA*dT*d[5mC]*dA*dT*d[5mC]*d[5mC]*dG*d[5mC]*dA*e[5mC]*e[5mC]*eA*eT*e[5mC]) [compound 24733]
- % mRNA EXPRESSION (Human B7-1 mRNA; 10 nM, COS-7, Table 8): 90%
- % mRNA INHIBITION (Human B7-1 mRNA; 10 nM, COS-7, Table 8): 10%
- % mRNA EXPRESSION (Human B7-1 mRNA; 30 nM, COS-7, Table 8): 91%
- % mRNA INHIBITION (Human B7-1 mRNA; 30 nM, COS-7, Table 8): 9%
- % mRNA EXPRESSION (Human B7-1 mRNA; 100 nM, COS-7, Table 8): 90%
- % mRNA INHIBITION (Human B7-1 mRNA; 100 nM, COS-7, Table 8): 10%
- % mRNA EXPRESSION (Human B7-1 mRNA; 300 nM, COS-7, Table 8): 80%
- % mRNA INHIBITION (Human B7-1 mRNA; 300 nM, COS-7, Table 8): 20%

Substance: 24734 (antisense e[5mC]*eG*eT*eT*eG*d[5mC]*dT*dT*dG*dT*dG*d[5mC]*d[5mC]*dG*dA*e[5mC]*eA*eG*eT*eG) [compound 24734]
- % mRNA EXPRESSION (Human B7-1 mRNA; 10 nM, COS-7, Table 8): 94%
- % mRNA INHIBITION (Human B7-1 mRNA; 10 nM, COS-7, Table 8): 6%
- % mRNA EXPRESSION (Human B7-1 mRNA; 30 nM, COS-7, Table 8): 96%
- % mRNA INHIBITION (Human B7-1 mRNA; 30 nM, COS-7, Table 8): 4%
- % mRNA EXPRESSION (Human B7-1 mRNA; 100 nM, COS-7, Table 8): 94%
- % mRNA INHIBITION (Human B7-1 mRNA; 100 nM, COS-7, Table 8): 6%
- % mRNA EXPRESSION (Human B7-1 mRNA; 300 nM, COS-7, Table 8): 84%
- % mRNA INHIBITION (Human B7-1 mRNA; 300 nM, COS-7, Table 8): 16%

Substance: 24735 (antisense eG*e[5mC]*eT*e[5mC]*eA*d[5mC]*dG*dA*dA*dG*dA*dA*d[5mC]*dA*d[5mC]*e[5mC]*eT*eT*e[5mC]*e[5mC]) [compound 24735]
- % mRNA EXPRESSION (Human B7-1 mRNA; 10 nM, COS-7, Table 8): 100%
- % mRNA EXPRESSION (Human B7-1 mRNA; 30 nM, COS-7, Table 8): 95%
- % mRNA INHIBITION (Human B7-1 mRNA; 30 nM, COS-7, Table 8): 5%
- % mRNA EXPRESSION (Human B7-1 mRNA; 100 nM, COS-7, Table 8): 81%
- % mRNA INHIBITION (Human B7-1 mRNA; 100 nM, COS-7, Table 8): 19%
- % mRNA EXPRESSION (Human B7-1 mRNA; 300 nM, COS-7, Table 8): 75%
- % mRNA INHIBITION (Human B7-1 mRNA; 300 nM, COS-7, Table 8): 25%

Substance: 323624 (antisense eG*eT*eT*eA*e[5mC]*dT*d[5mC]*dA*dG*dT*d[5mC]*d[5mC]*d[5mC]*dA*dT*eA*eG*eT*eG*e[5mC]) [compound 323624]
- % INHIB (inhibition of human B7.2 mRNA levels) (human B7.2 mRNA): 59%

Substance: 323625 (antisense e[5mC]*eA*eA*eA*eG*dA*dG*dA*dA*dT*dG*dT*dT*dA*d[5mC]*eT*e[5mC]*eA*eG*eT) [compound 323625]
- % INHIB (inhibition of human B7.2 mRNA levels) (human B7.2 mRNA): 21%

Substance: 323626 (antisense e[5mC]*e[5mC]*eA*eT*e[5mC]*dA*d[5mC]*dA*dA*dA*dG*dA*dG*dA*dA*eT*eG*eT*eT*eA) [compound 323626]
- % INHIB (inhibition of human B7.2 mRNA levels) (human B7.2 mRNA): 32%

Substance: 323627 (antisense eG*eG*eA*eA*eG*dG*d[5mC]*d[5mC]*dA*dT*d[5mC]*dA*d[5mC]*dA*dA*eA*eG*eA*eG*eA) [compound 323627]
- % INHIB (inhibition of human B7.2 mRNA levels) (human B7.2 mRNA): 54%

Substance: 323628 (antisense eG*eA*eG*e[5mC]*eA*dG*dG*dA*dA*dG*dG*d[5mC]*d[5mC]*dA*dT*e[5mC]*eA*e[5mC]*eA*eA) [compound 323628]
- % INHIB (inhibition of human B7.2 mRNA levels) (human B7.2 mRNA): 44%

Substance: 323629 (antisense e[5mC]*e[5mC]*eA*eG*eA*dG*dA*dG*d[5mC]*dA*dG*dG*dA*dA*dG*eG*e[5mC]*e[5mC]*eA*eT) [compound 323629]
- % INHIB (inhibition of human B7.2 mRNA levels) (human B7.2 mRNA): 36%

Substance: 323630 (antisense eA*eA*eA*eT*eA*dA*dG*d[5mC]*dT*dT*dG*dA*dA*dT*d[5mC]*eT*eT*e[5mC]*eA*eG) [compound 323630]
- % INHIB (inhibition of human B7.2 mRNA levels) (human B7.2 mRNA): 22%
